Data taken from PubChem BioAssay (NCI).
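96-well plates; 48 h exposure; 5 concentrations. Endpoints by linear interpolation between flanking doses. Not reached: highest tested concentration assigned. The concentration for 50% growth inhibition is given as GI50. TGI: total growth inhibition.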

Tests used:
Test in all cases: growth of human tumour cells (NCI), 48 h
786-0 renal = test system: 786-0 renal
A498 renal = test system: A498 renal
A549 NSCLC = test system: A549 NSCLC
ACHN renal = test system: ACHN renal
BT-549 breast = test system: BT-549 breast
CAKI-1 renal = test system: CAKI-1 renal
CCRF-CEM leukemia = test system: CCRF-CEM leukemia
COLO 205 colon = test system: COLO 205 colon
DU-145 prostate = test system: DU-145 prostate
HCC-2998 colon = test system: HCC-2998 colon
HCT-116 colon = test system: HCT-116 colon
HCT-15 colon = test system: HCT-15 colon
HL-60(TB) leukemia = test system: HL-60(TB) leukemia
HOP-62 NSCLC = test system: HOP-62 NSCLC
HOP-92 NSCLC = test system: HOP-92 NSCLC
HS 578T breast = test system: HS 578T breast
HT29 colon = test system: HT29 colon
IGROV1 ovarian = test system: IGROV1 ovarian
K-562 leukemia = test system: K-562 leukemia
KM12 colon = test system: KM12 colon
LOX IMVI melanoma = test system: LOX IMVI melanoma
M14 melanoma = test system: M14 melanoma
MALME-3M melanoma = test system: MALME-3M melanoma
MCF7 breast = test system: MCF7 breast
MDA-MB-231 breast = test system: MDA-MB-231 breast
MDA-MB-435 = test system: MDA-MB-435
MOLT-4 leukemia = test system: MOLT-4 leukemia
NCI-H226 lung = test system: NCI-H226 lung
NCI-H23 lung = test system: NCI-H23 lung
NCI-H460 lung = test system: NCI-H460 lung
NCI-H522 lung = test system: NCI-H522 lung
NCI/ADR-RES ovarian = test system: NCI/ADR-RES ovarian
OVCAR-3 ovarian = test system: OVCAR-3 ovarian
OVCAR-4 ovarian = test system: OVCAR-4 ovarian
OVCAR-5 ovarian = test system: OVCAR-5 ovarian
OVCAR-8 ovarian = test system: OVCAR-8 ovarian
PC-3 prostate = test system: PC-3 prostate
RPMI-8226 leukemia = test system: RPMI-8226 leukemia
RXF 393 renal = test system: RXF 393 renal
SF-268 CNS = test system: SF-268 CNS
SF-295 CNS = test system: SF-295 CNS
SK-MEL-2 melanoma = test system: SK-MEL-2 melanoma
SK-MEL-28 melanoma = test system: SK-MEL-28 melanoma
SK-MEL-5 melanoma = test system: SK-MEL-5 melanoma
SK-OV-3 ovarian = test system: SK-OV-3 ovarian
SN12C renal = test system: SN12C renal
SNB-19 CNS = test system: SNB-19 CNS
SNB-75 CNS = test system: SNB-75 CNS
SR leukemia = test system: SR leukemia
SW-620 colon = test system: SW-620 colon
T-47D breast = test system: T-47D breast
TK-10 renal = test system: TK-10 renal
U251 CNS = test system: U251 CNS
UACC-257 melanoma = test system: UACC-257 melanoma
UACC-62 melanoma = test system: UACC-62 melanoma
UO-31 renal = test system: UO-31 renal

For CCCCCCCCCCCCCCNc1nc(C(=O)OCC)ncc1-c1ccc(C(F)(F)F)cc1, the GI50 (786-0 renal) was > 100 µM, the TGI (786-0 renal) was > 100 µM and the GI50 (A498 renal) was > 100 µM. For the same compound, the TGI (A498 renal) was > 100 µM, the GI50 (A549 NSCLC) was > 100 µM and the TGI (A549 NSCLC) was > 100 µM. For the same compound, the GI50 (ACHN renal) was > 100 µM, the TGI (ACHN renal) was > 100 µM and the GI50 (BT-549 breast) was > 100 µM. For the same compound, the TGI (BT-549 breast) was > 100 µM, the GI50 (CAKI-1 renal) was > 100 µM and the TGI (CAKI-1 renal) was > 100 µM. The GI50 (CCRF-CEM leukemia) was > 100 µM, the TGI (CCRF-CEM leukemia) was > 100 µM and the GI50 (COLO 205 colon) was > 100 µM. The TGI (COLO 205 colon) was > 100 µM, the GI50 (DU-145 prostate) was > 100 µM and the TGI (DU-145 prostate) was > 100 µM. For the same compound, the GI50 (HCC-2998 colon) was > 100 µM, the TGI (HCC-2998 colon) was > 100 µM and the GI50 (HCT-116 colon) was > 100 µM. For the same compound, the TGI (HCT-116 colon) was > 100 µM, the GI50 (HCT-15 colon) was > 100 µM and the TGI (HCT-15 colon) was > 100 µM. For the same compound, the GI50 (HL-60(TB) leukemia) was > 100 µM, the TGI (HL-60(TB) leukemia) was > 100 µM and the GI50 (HOP-62 NSCLC) was > 100 µM. For the same compound, the TGI (HOP-62 NSCLC) was > 100 µM, the GI50 (HOP-92 NSCLC) was > 100 µM and the TGI (HOP-92 NSCLC) was > 100 µM. For the same compound, the GI50 (HS 578T breast) was > 100 µM, the TGI (HS 578T breast) was > 100 µM and the GI50 (HT29 colon) was > 100 µM. For the same compound, the TGI (HT29 colon) was > 100 µM, the GI50 (IGROV1 ovarian) was > 100 µM and the TGI (IGROV1 ovarian) was > 100 µM. For the same compound, the GI50 (K-562 leukemia) was > 100 µM, the TGI (K-562 leukemia) was > 100 µM and the GI50 (KM12 colon) was > 100 µM. The TGI (KM12 colon) was > 100 µM, the GI50 (LOX IMVI melanoma) was > 100 µM and the TGI (LOX IMVI melanoma) was > 100 µM. The GI50 (M14 melanoma) was > 100 µM, the TGI (M14 melanoma) was > 100 µM and the GI50 (MALME-3M melanoma) was > 100 µM. The TGI (MALME-3M melanoma) was > 100 µM, the GI50 (MCF7 breast) was > 100 µM and the TGI (MCF7 breast) was > 100 µM. For the same compound, the GI50 (MDA-MB-231 breast) was > 100 µM, the TGI (MDA-MB-231 breast) was > 100 µM and the GI50 (MDA-MB-435) was > 100 µM. The TGI (MDA-MB-435) was > 100 µM, the GI50 (MOLT-4 leukemia) was > 100 µM and the TGI (MOLT-4 leukemia) was > 100 µM. For the same compound, the GI50 (NCI-H226 lung) was > 100 µM, the TGI (NCI-H226 lung) was > 100 µM and the GI50 (NCI-H23 lung) was > 100 µM. For the same compound, the TGI (NCI-H23 lung) was > 100 µM, the GI50 (NCI-H460 lung) was > 100 µM and the TGI (NCI-H460 lung) was > 100 µM. The GI50 (NCI-H522 lung) was > 100 µM, the TGI (NCI-H522 lung) was > 100 µM and the GI50 (NCI/ADR-RES ovarian) was > 100 µM. For the same compound, the TGI (NCI/ADR-RES ovarian) was > 100 µM, the GI50 (OVCAR-3 ovarian) was > 100 µM and the TGI (OVCAR-3 ovarian) was > 100 µM. For the same compound, the GI50 (OVCAR-4 ovarian) was 48.1 µM, the TGI (OVCAR-4 ovarian) was > 100 µM and the GI50 (OVCAR-5 ovarian) was > 100 µM. For the same compound, the TGI (OVCAR-5 ovarian) was > 100 µM, the GI50 (OVCAR-8 ovarian) was > 100 µM and the TGI (OVCAR-8 ovarian) was > 100 µM. For the same compound, the GI50 (PC-3 prostate) was 27.5 µM, the TGI (PC-3 prostate) was > 100 µM and the GI50 (RPMI-8226 leukemia) was > 100 µM. For the same compound, the TGI (RPMI-8226 leukemia) was > 100 µM, the GI50 (RXF 393 renal) was > 100 µM and the TGI (RXF 393 renal) was > 100 µM. The GI50 (SF-268 CNS) was > 100 µM, the TGI (SF-268 CNS) was > 100 µM and the GI50 (SF-295 CNS) was > 100 µM. The TGI (SF-295 CNS) was > 100 µM, the GI50 (SK-MEL-2 melanoma) was > 100 µM and the TGI (SK-MEL-2 melanoma) was > 100 µM. For the same compound, the GI50 (SK-MEL-28 melanoma) was > 100 µM, the TGI (SK-MEL-28 melanoma) was > 100 µM and the GI50 (SK-MEL-5 melanoma) was > 100 µM. For the same compound, the TGI (SK-MEL-5 melanoma) was > 100 µM, the GI50 (SK-OV-3 ovarian) was > 100 µM and the TGI (SK-OV-3 ovarian) was > 100 µM. For the same compound, the GI50 (SN12C renal) was > 100 µM, the TGI (SN12C renal) was > 100 µM and the GI50 (SNB-19 CNS) was > 100 µM. The TGI (SNB-19 CNS) was > 100 µM, the GI50 (SNB-75 CNS) was > 100 µM and the TGI (SNB-75 CNS) was > 100 µM. For the same compound, the GI50 (SR leukemia) was > 100 µM, the TGI (SR leukemia) was > 100 µM and the GI50 (SW-620 colon) was > 100 µM. For the same compound, the TGI (SW-620 colon) was > 100 µM, the GI50 (T-47D breast) was > 100 µM and the TGI (T-47D breast) was > 100 µM. The GI50 (TK-10 renal) was > 100 µM, the TGI (TK-10 renal) was > 100 µM and the GI50 (U251 CNS) was > 100 µM. The TGI (U251 CNS) was > 100 µM, the GI50 (UACC-257 melanoma) was > 100 µM and the TGI (UACC-257 melanoma) was > 100 µM. The GI50 (UACC-62 melanoma) was > 100 µM, the TGI (UACC-62 melanoma) was > 100 µM and the GI50 (UO-31 renal) was > 100 µM. For the same compound, the TGI (UO-31 renal) was > 100 µM.
